This data set has as its system Staphylococcus carnosus. Description: antimicrobial activity assay (viable bacteria, CFU/ml). To be noted: synthetic peptide standard curve; 37° C. for 1.5 hr. The class given is cell-based. How it is done:
The antimicrobial activity assay employed Escherichia coli and Staphylococcus carnosus and is a modification of the protocol described by Porter and coworkers (Porter, E. M., et al., Infect Immun, 1997. 65(6): p. 2396-401). Briefly, gram-positive or gram-negative bacteria are grown overnight. The following day the test organisms are subcultured for 2.5 hr and working dilutions of 10^4 bacteria/ml for Escherichia coli or 10^5 bacteria/ml of Staphylococcus carnosus in 10 mM sodium phosphate (pH 7.4)-1% TSB are created. All the reactions mix 50 μl of experimental reagent (lysis, supernatants or purified protein) with 50 μl of bacterial suspension. These reactions are then incubated at 37° C. for 1.5 hr. The reactions are diluted 100-fold in 10 mM sodium phosphate (pH 7.4)-1% TSB and plated on TSB plates using a spiral plater (Spiral Biotech, Norwood, Mass.). The plates are then incubated for 12 to 16 hr at 37° C. Colonies on these plates are counted and the number of viable bacteria is determined and expressed as colony forming units per milliliter (CFU/ml).
This example describes the development of an assay to detect LL-37 antimicrobial activity. […] A standard curve for the antimicrobial activity of LL-37 was determined for gram-positive bacteria, S. carnosus using this synthetic peptide.

Consider `CC[C@H](C)[C@H](NC(=O)[C@H](CCCCN)NC(=O)[C@H](CCC(=O)O)NC(=O)[C@H](CCCCN)NC(=O)[C@H](CO)NC(=O)[C@H](CCCCN)NC(=O)[C@H](CCCNC(=N)N)NC(=O)[C@H](Cc1ccccc1)NC(=O)[C@H](Cc1ccccc1)NC(=O)[C@H](CC(=O)O)NC(=O)CNC(=O)[C@H](CC(C)C)NC(=O)[C@@H](N)CC(C)C)C(=O)NCC(=O)N[C@@H](CCCCN)C(=O)N[C@@H](CCC(=O)O)C(=O)N[C@@H](Cc1ccccc1)C(=O)N[C@@H](CCCCN)C(=O)N[C@@H](CCCNC(=N)N)C(=O)N[C@H](C(=O)N[C@H](C(=O)N[C@@H](CCC(N)=O)C(=O)N[C@@H](CCCNC(=N)N)C(=O)N[C@H](C(=O)N[C@@H](CCCCN)C(=O)N[C@@H](CC(=O)O)C(=O)N[C@@H](Cc1ccccc1)C(=O)N[C@@H](CC(C)C)C(=O)N[C@@H](CCCNC(=N)N)C(=O)N[C@@H](CC(N)=O)C(=O)N[C@@H](CC(C)C)C(=O)N[C@H](C(=O)N1CCC[C@H]1C(=O)N[C@@H](CCCNC(=N)N)C(=O)N[C@H](C(=O)N[C@@H](CCC(=O)O)C(=O)N[C@@H](CO)C(=O)O)[C@@H](C)O)C(C)C)[C@@H](C)CC)C(C)C)[C@@H](C)CC` [LL-37], for which the “concentration necessary to kill 50% (LC50) of S. carnosus” value was 0.9 µg/mL.

These data come from patent US10918768B2, “Human skin equivalents expressing exogenous polypeptides” (Stratatech Corporation, priority 2003, dated 2021).
